Activity calls are given as the source filed them.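 How the source made its calls: active means IC50 at or below 20 µM; inactive means the rest.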

From PubChem BioAssay AID743309 (Sanford-Burnham Center for Chemical Genomics, 2014) come the findings set out here.

For the experiment, the target named is Tyrosine-protein phosphatase non-receptor type 22 (Homo sapiens) (UniProt Q9Y2R2). As to the kind of experiment: LYP phosphatase inhibition for selectivity, SAR follow-up, selectivity assay for LMPTP inhibitor project, biochemical, fluorescence, LYP catalytic domain (AID 743309). The following applies: recombinant LYP catalytic domain, OMFP fluorescence.
Tyrosine-protein phosphatase non-receptor type 22 (Homo sapiens), sequence (Q9Y2R2 whole entry, looked up, the tested form may be a part): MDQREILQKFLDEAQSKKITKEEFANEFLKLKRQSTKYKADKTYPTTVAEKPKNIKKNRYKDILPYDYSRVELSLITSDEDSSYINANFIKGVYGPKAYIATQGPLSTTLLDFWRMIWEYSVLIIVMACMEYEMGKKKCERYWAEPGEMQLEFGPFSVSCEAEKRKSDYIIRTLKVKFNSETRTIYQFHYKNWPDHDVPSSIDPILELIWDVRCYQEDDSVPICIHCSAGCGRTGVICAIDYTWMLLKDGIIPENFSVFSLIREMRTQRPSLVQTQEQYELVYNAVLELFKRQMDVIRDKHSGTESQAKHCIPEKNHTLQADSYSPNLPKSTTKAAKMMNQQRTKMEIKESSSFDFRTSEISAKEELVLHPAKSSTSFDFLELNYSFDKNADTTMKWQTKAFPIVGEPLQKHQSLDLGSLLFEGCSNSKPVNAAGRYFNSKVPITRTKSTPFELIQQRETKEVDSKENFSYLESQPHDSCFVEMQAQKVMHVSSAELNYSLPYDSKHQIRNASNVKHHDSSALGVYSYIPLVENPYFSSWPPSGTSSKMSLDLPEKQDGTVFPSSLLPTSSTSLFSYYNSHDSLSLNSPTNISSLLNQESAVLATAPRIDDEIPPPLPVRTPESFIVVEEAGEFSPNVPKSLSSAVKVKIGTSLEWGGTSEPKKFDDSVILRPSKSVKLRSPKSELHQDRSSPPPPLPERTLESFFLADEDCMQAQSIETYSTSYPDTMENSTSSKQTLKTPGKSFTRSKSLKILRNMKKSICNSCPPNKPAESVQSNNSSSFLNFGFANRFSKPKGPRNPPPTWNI

On to `c1ccc(-c2cc(SCCCN3CCCCC3)c3ccccc3n2)cc1`, for which the IC50 (commonly the point on the concentration scale where inhibition reaches its midpoint) is > 80 µM (inactive).
With `c1ccc(-c2nc(N3CCCC3)c3ccccc3n2)cc1`, the IC50 was > 80 µM (inactive).
Take `c1ccc(-c2cc(NCCCN3CCCCC3)c3ccccc3n2)cc1`: the IC50 was > 80 µM (inactive).
Take `c1ccc(-c2cc(NCCCN3CCOCC3)c3ccccc3n2)cc1`: the IC50 was > 80 µM (inactive).
In the case of `c1ccc(-c2cc(NCCN3CCCC3)c3ccccc3n2)cc1`, the IC50 was > 80 µM (inactive).
For the molecule `c1ccc(-c2cc(N3CCCCC3)c3ccccc3n2)cc1`, the IC50 is > 80 µM (inactive).
On to `c1ccc2c(NCCCN3CCCCC3)cc(-c3ccncc3)nc2c1`, for which the IC50 was > 80 µM (inactive).
With `Fc1ccc(-c2cc(NCCCN3CCCCC3)c3ccccc3n2)cc1`, the IC50 is > 80 µM (inactive).
On to `c1ccc(-c2nc(N3CCOCC3)c3ccccc3n2)cc1`, for which the IC50 is > 80 µM (inactive).
As to `c1ccc(-c2nc(NCCN3CCCCC3)c3ccccc3n2)cc1`, the IC50 is > 80 µM (inactive).
With `c1ccc(-c2nc(NC3CC3)c3ccccc3n2)cc1`, the IC50 was > 80 µM (inactive).
The figure for `c1ccc(-c2nc(NCCCN3CCCCC3)c3ccccc3n2)cc1` is > 80 µM (inactive); for `Clc1cccc(-c2cc(NCCCN3CCCCC3)c3ccccc3n2)c1` it is > 80 µM (inactive).
In the case of `c1ccc(-c2nc(NCCN3CCOCC3)c3ccccc3n2)cc1`, the IC50 was > 80 µM (inactive).
`c1ccc(-c2cc(NCCN3CCOCC3)c3ccccc3n2)cc1`: the IC50 was > 80 µM (inactive).
Take `Cc1ccc(-c2nc(NCCN3CCOCC3)c3ccccc3n2)cc1`: the IC50 is > 80 µM (inactive).
For the molecule `CN(C)CCNc1cc(-c2ccccc2)nc2ccccc12`, the IC50 is > 80 µM (inactive).
As for `Cc1ccc(-c2nc(NCc3cccnc3)c3ccccc3n2)cc1`, the IC50 was > 80 µM (inactive).
With `CN1CCN(c2nc(-c3ccccc3)nc3ccccc23)CC1` the figure was > 80 µM (inactive); with `Cc1cccc(-c2nc(NCCCN3CCOCC3)c3ccccc3n2)c1`, > 80 µM (inactive); with `c1ccc(-c2nc(NCCCN3CCOCC3)c3ccccc3n2)cc1`, > 80 µM (inactive).
Regarding `COc1cc2nc(-c3ccccc3)cc(NCCCN3CCCCC3)c2cc1OC`, the IC50 is > 80 µM (inactive).
The figure for `c1ccc(-c2nc(N3CCCCC3)c3ccccc3n2)cc1` is > 80 µM (inactive).
On to `Brc1ccc2nc(-c3ccccc3)cc(NCCCN3CCCCC3)c2c1`, for which the IC50 was > 80 µM (inactive).
With `Fc1ccccc1-c1nc(NC2CCCC2)c2ccccc2n1` the figure was > 80 µM (inactive); with `c1ccc(-c2nc(NCCN3CCCC3)c3ccccc3n2)cc1`, > 80 µM (inactive); with `CN(C)CCNc1nc(-c2ccccc2)nc2ccccc12`, > 80 µM (inactive).
`Fc1ccc2nc(-c3ccccc3)cc(NCCCN3CCCCC3)c2c1`: the IC50 was > 80 µM (inactive).
The figure for `c1ccc(-c2cc(NCCN3CCCCC3)c3ccccc3n2)cc1` is > 80 µM (inactive); for `O=C(OCCNc1nc(-c2ccccc2)nc2ccccc12)c1ccncc1` it is > 80 µM (inactive); for `Cc1ccc(-c2cc(NCCCN3CCCCC3)c3ccccc3n2)cc1` it is > 80 µM (inactive).
With `Cc1ccc2nc(-c3ccccc3)cc(NCCCN3CCCCC3)c2c1`, the IC50 was > 80 µM (inactive).
As for `c1ccc(-c2nc(NC3CCCC3)c3ccccc3n2)cc1`, the IC50 was > 80 µM (inactive).
Take `COc1ccccc1-c1cc(NCCCN2CCCCC2)c2ccccc2n1`: the IC50 is > 80 µM (inactive).
Turning to `COc1ccccc1CNc1ncnc2ccsc12`, the IC50 is > 80 µM (inactive).
`CCc1nc(N)nc(N)c1-c1ccc(Cl)cc1`: the IC50 is > 80 µM (inactive).
With `Cc1c(CCC(=O)O)c(=O)oc2c(C)c(OCc3ccccc3Cl)ccc12` the figure was 15.7 µM; with `Fc1cccc(-c2cc(NCCCN3CCCCC3)c3ccccc3n2)c1`, > 80 µM (inactive).
Regarding `c1ccc(-c2nc(N3CCSCC3)c3ccccc3n2)cc1`, the IC50 is > 80 µM (inactive).
`COc1cccc(-c2cc(NCCCN3CCCCC3)c3ccccc3n2)c1`: the IC50 is > 80 µM (inactive).
`c1ccc(-c2nc(N3CCCCCC3)c3ccccc3n2)cc1`: the IC50 is > 80 µM (inactive).
In the case of `Clc1ccccc1-c1cc(NCCCN2CCCCC2)c2ccccc2n1`, the IC50 is > 80 µM (inactive).
As for `Clc1cccc(Cl)c1Cn1cnc(=NCc2ccco2)c2[nH]cnc21`, the IC50 is > 80 µM (inactive).
In the case of `Fc1ccccc1-c1nc(NCCCN2CCOCC2)c2ccccc2n1`, the IC50 is > 80 µM (inactive).
On to `c1ccc(-c2nc(NCCCn3ccnc3)c3ccccc3n2)cc1`, for which the IC50 was > 80 µM (inactive).
For the molecule `Nc1nc(N)c(Cc2ccc(Cl)cc2Cl)c(N)n1`, the IC50 was > 80 µM (inactive).
In the case of `CC(C)Nc1nc(-c2ccccc2)nc2ccccc12`, the IC50 was > 80 µM (inactive).
On to `CCCCNc1nc(-c2ccccc2)nc2ccccc12`, for which the IC50 was > 80 µM (inactive).
With `c1ccc(-c2nc(NCc3cccnc3)c3ccccc3n2)cc1` the figure was > 80 µM (inactive).
With `FC(F)(F)c1cccc(-c2cc(NCCCN3CCCCC3)c3ccccc3n2)c1` the figure was > 80 µM (inactive); with `CCN(CC)c1nc(-c2ccccc2)nc2ccccc12`, > 80 µM (inactive); with `CC1CCN(c2nc(-c3ccccc3)nc3ccccc23)CC1`, > 80 µM (inactive).
For `Clc1ccc(-c2cc(NCCCN3CCCCC3)c3ccccc3n2)cc1`, the IC50 is > 80 µM (inactive).
With `CC(C)CNc1nc(-c2ccccc2)nc2ccccc12`, the IC50 was > 80 µM (inactive).
In the case of `O=C(OCCNc1nc(-c2ccccc2)nc2ccccc12)c1cccnc1`, the IC50 was > 80 µM (inactive).
Consider `CC(C)OCCCNc1nc(-c2ccccc2)nc2ccccc12`, for which the IC50 is > 80 µM (inactive).
In the case of `c1ccc(-c2cc(OCCCN3CCCCC3)c3ccccc3n2)cc1`, the IC50 is > 80 µM (inactive).
`c1ccc(-c2nc(NC3CCCCC3)c3ccccc3n2)cc1`: the IC50 was > 80 µM (inactive).
With `COc1ccc(-c2cc(NCCCN3CCCCC3)c3ccccc3n2)cc1`, the IC50 is > 80 µM (inactive).
